Source: article PMC12136037, “Type II kinase inhibitors that target Parkinson’s disease–associated LRRK2” (Science Advances, 2025)
Several values for one entry are separate records, joined by “and”; a condition that tells them apart may be missing. Equal values may be shown once.

Assays:
LRRK2^KW = biological target: T1, LRRK2^KW (Homo sapiens, UniProt Q5S007); experiment: DSF thermal stabilization of LRRK2^KW; type: binding; conditions: DSF, LRRK2^KW, 10 μM inhibitor
T1 construct: LRRK2 R1847 to E2527; His6-Z-tag (TEV cleavable) (N, cleaved yes); host or cells: Sf9 insect cells (baculovirus)
T1 sequence (Q5S007 1847-2527): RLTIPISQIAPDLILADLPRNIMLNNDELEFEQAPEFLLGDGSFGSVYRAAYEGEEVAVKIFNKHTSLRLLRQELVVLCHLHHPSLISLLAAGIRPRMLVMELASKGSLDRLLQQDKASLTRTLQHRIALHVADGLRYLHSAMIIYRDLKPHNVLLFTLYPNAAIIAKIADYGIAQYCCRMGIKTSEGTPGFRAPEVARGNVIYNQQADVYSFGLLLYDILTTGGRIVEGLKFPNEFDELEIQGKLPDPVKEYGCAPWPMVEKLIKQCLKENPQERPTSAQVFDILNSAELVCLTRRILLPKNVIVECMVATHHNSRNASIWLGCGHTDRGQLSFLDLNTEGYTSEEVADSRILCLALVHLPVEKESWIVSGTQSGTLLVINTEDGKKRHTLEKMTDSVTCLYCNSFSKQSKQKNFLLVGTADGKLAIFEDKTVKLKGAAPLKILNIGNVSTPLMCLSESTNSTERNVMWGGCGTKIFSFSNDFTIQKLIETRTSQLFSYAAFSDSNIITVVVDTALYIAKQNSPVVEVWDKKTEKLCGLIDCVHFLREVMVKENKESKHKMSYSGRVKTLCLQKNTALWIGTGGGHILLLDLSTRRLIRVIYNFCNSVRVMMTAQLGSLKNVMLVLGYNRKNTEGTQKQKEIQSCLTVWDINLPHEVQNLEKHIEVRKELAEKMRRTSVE
Description: To characterize binding between small molecules and LRRK2^KW, induced thermal stabilization was measured by DSF according to previously established protocols ([47]). In brief, LRRK2^KW was diluted to 4 μM in 20 mM Hepes (pH 7.4), 150 mM NaCl, 0.5 mM TCEP, 0.5% glycerol, 20 μM GDP, and 2.5 mM MgCl2, and SYPRO Orange was added (1:1000, MilliporeSigma). Inhibitor (10 μM) to be tested was added to a final sample volume of 20 μl per well of a 96-well plate (white, Starlab). […] The fluorescence was plotted against the temperature, and the melting point (Tm) was determined as the minimum of the first derivative relative to the control.

LRRK2^RCKW = biological target: T2, LRRK2^RCKW (Homo sapiens, UniProt Q5S007); experiment: Biochemical LRRK2 activity assay (PhosphoSense, AssayQuant SOX peptide AQT0615); conditions: for IC50: LRRK2^RCKW kinase activity, in vitro; for normalized response (LRRK2 activity): normalized to 0% (no kinase) and 100% (no inhibitor) control, two singlicate columns per compound
T2 construct: LRRK2 R1327 to E2527; His6-Z-tag (TEV cleavable) (N, cleaved yes); host or cells: Sf9 insect cells (baculovirus)
T2 sequence (Q5S007 1327-2527): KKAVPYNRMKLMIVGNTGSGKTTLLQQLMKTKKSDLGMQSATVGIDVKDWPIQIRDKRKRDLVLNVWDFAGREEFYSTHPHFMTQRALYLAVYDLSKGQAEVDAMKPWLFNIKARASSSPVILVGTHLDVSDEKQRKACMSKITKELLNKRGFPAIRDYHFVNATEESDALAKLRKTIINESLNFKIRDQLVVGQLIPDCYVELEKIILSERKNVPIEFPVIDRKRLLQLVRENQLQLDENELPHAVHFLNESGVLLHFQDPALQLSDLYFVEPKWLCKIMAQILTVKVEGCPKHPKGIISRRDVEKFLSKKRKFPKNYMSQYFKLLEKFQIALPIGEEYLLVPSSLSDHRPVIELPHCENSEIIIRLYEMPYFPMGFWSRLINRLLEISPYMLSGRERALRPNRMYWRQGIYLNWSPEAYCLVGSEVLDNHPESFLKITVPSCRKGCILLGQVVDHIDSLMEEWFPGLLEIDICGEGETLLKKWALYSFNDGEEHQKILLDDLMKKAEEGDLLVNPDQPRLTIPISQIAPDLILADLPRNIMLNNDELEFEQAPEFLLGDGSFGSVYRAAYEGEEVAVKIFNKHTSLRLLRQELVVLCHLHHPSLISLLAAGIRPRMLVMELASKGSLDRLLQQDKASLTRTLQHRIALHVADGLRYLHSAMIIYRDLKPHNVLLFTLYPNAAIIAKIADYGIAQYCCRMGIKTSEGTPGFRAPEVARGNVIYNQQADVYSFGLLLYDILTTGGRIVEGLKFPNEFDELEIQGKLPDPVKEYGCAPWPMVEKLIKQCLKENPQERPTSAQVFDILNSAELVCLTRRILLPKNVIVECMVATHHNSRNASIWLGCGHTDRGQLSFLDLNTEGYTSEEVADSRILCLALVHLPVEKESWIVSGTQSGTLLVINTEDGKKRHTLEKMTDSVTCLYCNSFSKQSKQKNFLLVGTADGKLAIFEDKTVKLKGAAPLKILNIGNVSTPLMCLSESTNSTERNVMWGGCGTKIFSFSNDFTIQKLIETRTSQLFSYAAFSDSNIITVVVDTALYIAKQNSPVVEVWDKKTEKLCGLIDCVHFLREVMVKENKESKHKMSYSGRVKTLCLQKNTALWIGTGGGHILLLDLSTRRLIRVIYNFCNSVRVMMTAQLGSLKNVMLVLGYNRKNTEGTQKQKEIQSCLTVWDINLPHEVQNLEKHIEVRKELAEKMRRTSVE
Description: Two wells per compound were used as 0% (without protein and compound) and 100% (without compound) control. […] The 0% control wells were filled with 10 μl of pure reaction buffer. With the ECHO, 5 nl of 100 mM ATP was pipetted into each well, the plates were centrifuged at 1500g for 2 min, and the reaction was incubated at room temperature for 4 hours. The fluorescence of the SOX-peptide after 360-nm excitation was measured at 487-nm emission with a PHERAstar plate reader (BMG Labtech). The IC50 values were calculated from a nonlinear regression of the log[inhibitor] versus the normalized response with GraphPad Prism 8 (www.graphpad.com/, RRID:SCR_002798).

O=C(Nc1ccc(F)cc1)C1(C(=O)Nc2cccc(-c3c[nH]c4ncnc(N5CCOCC5)c34)c2)CCCC1 [Compound 3]
∆Tm (K) (LRRK2^KW): 6.0 K
IC50 (LRRK2^RCKW): 694 ± 1 nM
normalized response (LRRK2 activity) (LRRK2^RCKW; log[inhibitor(mol)] -4.82391): -13.5275% and -8.323%
normalized response (LRRK2 activity) (LRRK2^RCKW; log[inhibitor(mol)] -5.12494): -11.1035% and -8.9537%
normalized response (LRRK2 activity) (LRRK2^RCKW; log[inhibitor(mol)] -5.60206): 14.4144% and 11.8039%
normalized response (LRRK2 activity) (LRRK2^RCKW; log[inhibitor(mol)] -6.30103): 58.5784% and 59.582%
normalized response (LRRK2 activity) (LRRK2^RCKW; log[inhibitor(mol)] -6.90309): 93.4358% and 94.7027%
normalized response (LRRK2 activity) (LRRK2^RCKW; log[inhibitor(mol)] -7.30103): 100.456% and 104.273%
normalized response (LRRK2 activity) (LRRK2^RCKW; log[inhibitor(mol)] -7.60206): 103.702% and 110.256%
normalized response (LRRK2 activity) (LRRK2^RCKW; log[inhibitor(mol)] -8.09691): 103.006% and 100.445%
normalized response (LRRK2 activity) (LRRK2^RCKW; log[inhibitor(mol)] -8.61979): 97.1047% and 100.867%
normalized response (LRRK2 activity) (LRRK2^RCKW; log[inhibitor(mol)] -9.09691): 96.2602% and 102.309%
normalized response (LRRK2 activity) (LRRK2^RCKW; log[inhibitor(mol)] -9.39794): 100.406% and 102.43%

Cn1cc(NC(=O)C2(C(=O)Nc3cccc(-c4c[nH]c5ncnc(N6CCOCC6)c45)c3)CC2)cn1 [Compound 9]
∆Tm (K) (LRRK2^KW): 4.0 K
IC50 (LRRK2^RCKW): 2110 ± 1190 nM
normalized response (LRRK2 activity) (LRRK2^RCKW; log[inhibitor(mol)] -5.60206): 49.186% and 49.8222%
normalized response (LRRK2 activity) (LRRK2^RCKW; log[inhibitor(mol)] -6.30103): 82.8654% and 52.2345%
normalized response (LRRK2 activity) (LRRK2^RCKW; log[inhibitor(mol)] -6.90309): 104.293% and 98.1919%
normalized response (LRRK2 activity) (LRRK2^RCKW; log[inhibitor(mol)] -7.30103): 105.91% and 76.5961%
normalized response (LRRK2 activity) (LRRK2^RCKW; log[inhibitor(mol)] -7.60206): 104.315% and 59.7541%
normalized response (LRRK2 activity) (LRRK2^RCKW; log[inhibitor(mol)] -8.09691): 97.675% and 89.444%
normalized response (LRRK2 activity) (LRRK2^RCKW; log[inhibitor(mol)] -8.61979): 99.5438% and 104.868%
normalized response (LRRK2 activity) (LRRK2^RCKW; log[inhibitor(mol)] -9.09691): 109.546% and 62.2548%
normalized response (LRRK2 activity) (LRRK2^RCKW; log[inhibitor(mol)] -9.39794): 105.46% and 118.944%

O=C(c1cccc(NC(=O)C2(C(=O)Nc3ccc(F)cc3)CC2)c1)c1c[nH]c2ncnc(N3CCOCC3)c12 [Compound 8]
∆Tm (K) (LRRK2^KW): 7.0 K
IC50 (LRRK2^RCKW): 912 ± 141 nM
normalized response (LRRK2 activity) (LRRK2^RCKW; log[inhibitor(mol)] -4.82391): 4.225% and -5.581%
normalized response (LRRK2 activity) (LRRK2^RCKW; log[inhibitor(mol)] -5.12494): 6.8846% and 7.148%
normalized response (LRRK2 activity) (LRRK2^RCKW; log[inhibitor(mol)] -5.60206): 31.5798% and 32.6109%
normalized response (LRRK2 activity) (LRRK2^RCKW; log[inhibitor(mol)] -6.30103): 61.7209% and 66.4318%
normalized response (LRRK2 activity) (LRRK2^RCKW; log[inhibitor(mol)] -6.90309): 86.2516% and 93.0519%
normalized response (LRRK2 activity) (LRRK2^RCKW; log[inhibitor(mol)] -7.30103): 93.3097% and 89.5476%
normalized response (LRRK2 activity) (LRRK2^RCKW; log[inhibitor(mol)] -7.60206): 86.8493% and 91.0776%
normalized response (LRRK2 activity) (LRRK2^RCKW; log[inhibitor(mol)] -8.09691): 91.1928% and 88.5988%
normalized response (LRRK2 activity) (LRRK2^RCKW; log[inhibitor(mol)] -8.61979): 102.068% and 96.0518%
normalized response (LRRK2 activity) (LRRK2^RCKW; log[inhibitor(mol)] -9.09691): 105.369% and 96.9676%
normalized response (LRRK2 activity) (LRRK2^RCKW; log[inhibitor(mol)] -9.39794): 104.196% and 102.019%
